According to US5547956A, “Pharmaceutical composition and the method for treating drug addicts' withdrawal syndromes and detoxifying addicts by the same” (priority 1991, dated 1996):
Counter-ions that a name gives are not always drawn. Like-named read-outs stand apart in the source and are kept apart here.

Columns and labels:
Morphine-dependent Mice = assay type: in vivo, mouse; settings: for Jumping Mice/Survived Mice, Day 1 after stopping drug / Jumping Mice/Survived Mice, Day 4 after stopping administration / Jumping Mice/Survived Mice, Day 5 of treatment: nalorphine 50 mg/kg
Protocol: In the first 4 days, administration was given once per 6 hours, four times a day. From day 5 through day 7, administration was given once every 8 hours, three times a day. On day 5 and day 8 of treatment, respectively, subcutaneous injections of nalorphine (50 mg/kg) were made to […].

mice [1] = test system: mice
Protocol: Male mice weighing 18~22 g were used for the test and divided into 3 groups (10 for every group). […] The second group of mice was given a subcutaneous injection of lappaconitine hydrobromide (8 mg/kg) for 20 days. The third group was a control group and was given physiological saline. 6 hours after being given the last dose, all the mice were given an intraperitoneal injection of 10 mg/kg allyl dromaran, and then were placed in a cone cylinder cage (diameter=30 cm, height=35 cm). The number of jumps for each mouse in 60 minutes was recorded.

mice [2] = test system: mice; remark: listed apart in the source
Protocol: In another case, male mice weighing 18-22 g were divided into four groups (10 for every group). Two groups of mice were injected subcutaneously with lappaconitine hydrobromide 7 times within 2 days. The initial dosage was 3.5 mg/kg. Then, additional doses of 0.5 mg/kg and 1.0 mg/kg were given for every injection in each group, respectively. […] The initial dosage was 2.5 mg/kg and an escalating dose schedule of 5, 10, 20, 30, 40, 50 mg/kg was applied. The fourth group of mice was used as control group and was given physiological saline. Two hours after the last injection, all the mice of the above four groups were injected with 50 mg/kg nalorphine through the intraperitoneal cavity. The number of jumps within 10 minutes in each group of mice were recorded.

Morphine-dependent rats = assay type: in vivo, Wister rat
Protocol: Wister male rats weighing 200-250 g were divided into 3 groups (10 for each group).
II Physiological saline 2 ml/kg. sc
III Lappaconitine hydrobromide 8 mg/kg. sc

Macaca mulatta = assay: Monkey addiction test (lappaconitine); assay type: in vivo
Protocol: Three of 6 Macaca mulatta weighing 2.75~4.75 kg were subcutaneously injected with lappaconitine twice a day. The initial dosage is 0.1 mg/kg, and the dose was successively escalated to the maximum tolerance dosage, 2 mg/kg within 50 days. Then, the tolerance dosage was maintained to the 53rd day, 67th day and 92nd day, respectively. […] On day 63 and day 92, the injections of lappaconitine to the monkeys was stopped. […] On day 29, 53, 59, 67 and 90, injections to the monkeys were discontinued and after 18 hours, subcutaneous injection of nalorphine (4 or 8 mg/kg) were given.

[3] = Acute Toxicity Test, mice; assay type: in vivo, mouse; settings: for LD50: mouse, in vivo, read-out: LD50 (95 % confidence limit)
[4] = Acute Toxicity Test, rats; assay type: in vivo, rat
[5] = Acute Toxicity Test, monkeys; assay type: in vivo, Macca Mulatta
[6] = assay type: in vivo, Wister rat; settings: 5 or 10 mg/kg ip a day, 30 days
Protocol: Ten Wister rats weighing 200~250 g were divided into 2 groups (5 for each group). Each group was given intraperitoneal injection of 5 mg/kg or 10 mg/kg of lappaconitine a day, respectively. The injection was continued for 30 days. 5 wister rats of a control group were given subcutaneous injections of saline (2 ml/kg). […].

[7] = assay type: in vivo, Wister rat; settings: 8 to 14 mg/kg ip escalated, until day 28
Protocol: Another ten Wister rats were medicated with successively escalated doses, in other words, the rats were first injected with lappaconitine (8 mg/kg) intraperitoneally. After one week with 10 mg/kg; after 2 weeks with 12 mg/kg; after 16 days with 14 mg/kg; and the last dose was maintained until day 28.

[8] = Subacute toxicity Test, monkeys; assay type: in vivo, Macca Mulatta
Protocol: Three Macca Mulatta weighing 2.75~4.75 kg were injected with lappaconitine subcutaneously twice a day. Initiated with 0.1 mg/kg, the dosage was increased successively to the highest tolerated dosage, 2 mg/kg within 50 days, and the last dosage was maintained to day 53, day 67 and day 92, respectively. The accumulated injective dosage was 196, 400 and 635 mg, respectively.

[9] = test system: mice dependent on cocaine
Protocol: In the same way as described above, subcutaneous injection of cocaine (10 mg/kg) were given to the mice twice a day, and the injection was continued for 7 days.

[10] = test system: morphine-dependent monkeys
[11] = oral methadone vs injected morphine; cited from earlier work
[12] = 0.45 mg/g sc (so in the source)
[13] = nalorphine 50 mg/kg, 2 days: lappaconitine initial 3.5 mg/kg, total 45.5 mg/kg, 5 mice tested
[14] = 0.1 to 2 mg/kg sc twice a day, to day 53, 67 and 92

SMILES: CCN1CC2(O)CCC(OC)C34C1C(CC23)C1(O)CC(OC)C2CC4C1(O)C2OC (stereo not shown) [Lappaconine hydrobromide, lappaconine hydrobromide]
- Jumping Mice/Survived Mice, Day 1 after stopping drug (Morphine-dependent Mice; 5 mg/g (so in the source) sc): 0/10
- Jumping Mice/Survived Mice, Day 4 after stopping administration (Morphine-dependent Mice; 5 mg/g (so in the source) sc): 0/10
- Jumping Mice/Survived Mice, Day 5 of treatment (Morphine-dependent Mice; 5 mg/g (so in the source) sc): 0/10

SMILES: CCN1CC2(OC(=O)c3ccccc3NC(C)=O)CCC(OC)C34C1C(CC23)C1(O)CC(OC)C2CC4C1(O)C2OC (stereo not shown) [Lappaconitine hydrobromide, lappaconitine hydrobromide]
- behaviour after administration (mice [1]; mouse, in vivo): looked quiet and immobile and showed no pilo-erection reaction
- jumping reaction after injection of allyl dromaran (mice [1]; mouse, in vivo): no jumping reaction
- drug dependence (conclusion of Table 4) (mice [2]; mouse jumping test): does not cause drug dependence
- Jumping Mice/Survived Mice, Day 1 after stopping drug (Morphine-dependent Mice; [12]): 0/10
- Jumping Mice/Survived Mice, Day 4 after stopping administration (Morphine-dependent Mice; [12]): 0/10
- Jumping Mice/Survived Mice, Day 5 of treatment (Morphine-dependent Mice; [12]): 1/10
- number of jumps of the one jumping mouse (Morphine-dependent Mice; footnote *^3, 0.45 mg/g (so in the source) sc group, Day 5): five

SMILES: CCN1CC2(OC(=O)c3ccccc3NC(C)=O)CCC(OC)C34C1C(CC23)C1(O)CC(OC)C2CC4C1(O)C2OC (stereo not shown) [Lappaconitine]
- jumping times of each mouse (mice [1]; mouse, in vivo): 0.2
- number of jumping mice (mice [1]; mouse, in vivo): 1
- mice died of accumulated toxicity during the administration (mice [2]; initial 3.5 mg/kg, total 45.5 mg/kg in 2 days, of 10 mice): five
- jumping times of each mouse (mice [2]; mouse, in vivo): 0
- number of jumping mice (mice [2]; mouse, in vivo): 0
- jumping times of each mouse (mice [2]; [13]): 0
- number of jumping mice (mice [2]; [13]): 0
- behaviour of morphine-withdrawn rats after injection (Morphine-dependent rats; rat, in vivo): still looked suppressive
- weight change of morphine-withdrawn rats after injection (Morphine-dependent rats; rat, in vivo): no weight increase was observed
- substitution for morphine (Morphine-dependent rats; rat, in vivo, sc, 8 mg/kg): did not act as a substitution for morphine
- withdrawal symptoms after nalorphine (Macaca mulatta; 18 hours after discontinuing on day 29, 53, 59, 67 and 90, nalorphine 4 or 8 mg/kg sc): No withdrawal symptoms were observed
- behavior and appetite after stopping injections (Macaca mulatta; 24 hours following stop on day 63 and day 92): no different behavior and appetite from that before stopping injection
- dependence after long term use (Macaca mulatta; monkeys): does not cause dependence after long term use
- toxicity reactions at lethal dosage ([3]; lethal dosage): paroxysmal convulsion, respiration suppression until suffocation, and death
- LD50 ([3]; intravenous injection): 8.4 mg/kg
- LD50 ([3]; po, intra gasteria): 32.4 mg/kg
- LD50 ([3]; sc, subcutaneous injection): 11.7 mg/kg
- toxicity reactions ([3]; toxicity dosages): paroxysmal restlessness, and foreleg tic
- toxicity reactions ([4]; intraperitoneal, toxicity dosage): looked suppressive and immobile lying on stomach in cage, obvious suppression of respiration and showed convulsions before death
- LD50 ([4]; rat, in vivo, ip, intraperitoneal injection, read-out: LD50 (95 % confidence limit)): 16.5 mg/kg
- toxic reaction and electrocardiography ([5]; 2 mg/kg sc, two monkeys): No toxic reaction and no effect on electrocardiography were observed
- electrocardiography examination ([5]; 3 mg/kg sc): T wave had elevation, T wave and P wave fused, and R wave became smaller and notching
- toxic reactions ([5]; 3 mg/kg sc, 30 minutes after injection): restlessness, slobbering, increased swallowing, drooping eyelids, and rigidity of leg muscles
- convulsion and death of one monkey ([5]; 3 mg/kg sc, from 45 minutes): The convulsion still continued until death after 1 hr
- duration of toxic reaction in the other monkey ([5]; 3 mg/kg sc, no convulsion): 2 h
- electrocardiography examination next day ([5]; 3 mg/kg sc, surviving monkey): normal
- electrocardiography examination [6]: No obvious change
- hepatic and renal function and histological and pathological examination of viscera [6]: No change was observed
- weight increase compared to control [6]: inhibited weight increase at different levels
- weight increase compared to control [7]: a little suppressed
- Histological and pathological examinations [8, 14]: stimulating reaction, except a little edema and hydrodenaturation in the liver and increasing cerebral colloid cells
- electrocardiographic examination [8, 14]: No obvious change
- toxic reaction during administration [8, 14]: No toxic reaction
- MTD ([8]; rhesus monkey, in vivo, monkey, sc twice a day, escalated from 0.1 mg/kg within 50 days, read-out: maximum tolerance dosage / highest tolerated dosage): 2 mg/kg
- recovery of cocaine-treated mice ([9]; mouse, in vivo): recovered to normal
- effect on withdrawal symptoms of morphine-dependent monkeys ([10]; in vivo): could not relieve or weaken the above withdrawal symptoms
- substitute for morphine ([10]; in vivo, sc, 2 mg/kg): does not act as a substitute for morphine

SMILES: CN1CC[C@]23c4c5ccc(O)c4O[C@H]2[C@@H](O)C=C[C@H]3[C@H]1C5.Cl [Morphine, morphine hydrochloride, reference compound]
- jumping times of each mouse (mice [1]; allyl-dromaran 10 mg/kg ip, 20 days: morphine 80 mg/kg (total 1600), lappaconitine 8.0 mg/kg (total 160)): 34
- jumping times of each mouse (mice [2]; nalorphine 50 mg/kg, 2 days: morphine initial 2.5 mg/kg (total 157.5), lappaconitine initial 3.5 mg/kg (total 35)): 9
- average weight loss per rat (Morphine-dependent rats; 24 hours after discontinuing morphine (25 mg/kg sc twice a day, 12 weeks)): 25 g
- behaviour of morphine-withdrawn rats after injection (Morphine-dependent rats; morphine hydrochloride 25 mg/kg sc or lappaconitine hydrobromide 8 mg/kg sc): turned to being excited from being suppressive, moved increasingly, frequently took food and water
- weight change of morphine-withdrawn rats after injection (Morphine-dependent rats; within 8 hours, morphine hydrochloride 25 mg/kg sc or lappaconitine hydrobromide 8 mg/kg sc): the weight increased to the level shown very quickly before stopping injection of morphine
- Withdrawal Syndrome, Nalorphine 0.5 mg/kg sc ([10]; Table 5, per monkey (No. 7, 8) and day): +
- dependence in monkeys ([10]; sc twice a day until the 30th day): showed dependence on morphine
- effect on withdrawal symptoms of morphine-dependent monkeys ([10]; sc, lappaconitine 2 mg/kg, 18 hours after stopping morphine): obviously reduced or disappeared

SMILES: CCN1CC2(OC(=O)c3ccccc3N)CCC(OC)C34C1C(CC23)C1(O)CC(OC)C2CC4C1(O)C2OC (stereo not shown) [N-deacetyllappaconitine hydrobromide, N-deacetyl-lappaconitine hydrobromide]
- Jumping Mice/Survived Mice, Day 1 after stopping drug (Morphine-dependent Mice; 5 mg/g (so in the source) sc): 0/10
- Jumping Mice/Survived Mice, Day 4 after stopping administration (Morphine-dependent Mice; 5 mg/g (so in the source) sc): 0/10
- Jumping Mice/Survived Mice, Day 5 of treatment (Morphine-dependent Mice; 5 mg/g (so in the source) sc): 0/10

SMILES: COC(=O)[C@H]1[C@@H](OC(=O)c2ccccc2)C[C@@H]2CC[C@H]1N2C [cocaine, reference compound]
- abnormal signs during injection of cocaine ([9]; 10 mg/kg sc twice a day, 7 days): anorexia, pilo-erection, and frequent walking with holding tail, and the like

SMILES: CCC(=O)C(CC(C)N(C)C)(c1ccccc1)c1ccccc1 (stereo not shown) [methadone]
- dependence potential of 100 mg of oral methadone [11]: equivalent to that of 10 mg of injected morphine

SMILES: C=CCN1CC[C@]23c4c5ccc(O)c4O[C@H]2[C@@H](O)C=C[C@H]3[C@H]1C5 [nalorphine]
- effect of nalorphine on withdrawal symptoms ([10]; in vivo, sc): the above symptoms would be more obvious
